According to patent publication US7029695B2, “Therapeutic compositions containing glutathione analogs” (Telik, Inc., priority 2001, dated 2006):

Columns and labels:
[1] = system: fluorouracil-induced neutropenia; settings: liposomal formulation of Example 4; 35 mg/kg i.v., 8 daily injections after fluorouracil 125 mg/kg i.p.; male CD rats
Protocol: Male CD rats (250–300 g) were injected intraperitoneally with either the antineoplastic drug, fluorouracil (125 mg/kg) or an equivalent volume of its vehicle (saline). […] Rats originally injected with saline rather than fluorouracil received saline intravenously (n=7). Blood samples were taken for measurement of neutrophil levels prior to the fluorouracil and every 1 to 2 days thereafter for 14 days.

[2] = system: circulating neutrophil levels; settings: liposomal formulation of Example 4; 35 mg/kg i.v., 5 daily injections; normal male CD rats
Excerpt: Blood samples were taken for measurement of neutrophil levels daily.

In the case of “γ-Glutamyl-S(benzyl)cysteinyl-R-phenyl glycine diethyl ester hydrochloride [Compound 9]”, the “recovery from chemotherapy-induced neutropenia” value [1] is reported as “accelerated recovery” and the circulating neutrophil levels [2] is reported as “increased”.
